Here are results for 22 compounds from ChEMBL document CHEMBL3046250, “Synthesis and anticonvulsant evaluation of 3-substituted-4-(4-hexyloxyphenyl)-4H-1,2,4-triazoles” (Med Chem Res, 2009).

The TD50 is the dose at which the toxic effect under study appears in half of the subjects. The term ED50 denotes the dose at which the effect has come halfway, by size or by number of responders.

Series [1] is described as follows: Neurotoxicity in ip dosed Mus musculus C57B/6 (mouse) assessed as inability to maintain equilibrium measured after 30 min by rotarod test. Type of series: toxicity, organism-based. The following applies: in vivo. (In general: Falling from the rotarod earlier than controls is read as motor impairment.)
Series [2] relates to Mus musculus. The series is described as follows: Anticonvulsant activity in ip dosed Mus musculus C57B/6 (mouse) assessed as protection against maximal electroshock-induced seizures. The following applies: C57B/6, ip. Type of series: functional.
Series [3] can be described thus: Protective index, ratio of TD50 for neurotoxicity to ED50 for anticonvulsant activity in ip dosed Mus musculus C57B/6 (mouse). The series is classed as toxicity, organism-based. Particulars: in vivo, read-out: Ratio TD50/ED50.
Series [4] deals with Mus musculus. Put plainly: Anticonvulsant activity in Mus musculus (mouse) assessed protection against subcutaneous pentylenetetrazole-induced seizures. The series is classed as functional. Particulars: sc.
A short description of series [5]: Neurotoxicity in Mus musculus (mouse) by rotarod test. The series is classed as toxicity, organism-based. The following applies: in vivo.

With `CCCCCCOc1ccc(-n2cnnc2C)cc1`, the TD50 at 0.5 h in series [1] was determined as 114 mg/kg. The ED50 in the series with Mus musculus [2] amounted to 22.8 mg/kg. For the same compound, the selectivity ratio in series [3] was determined as 4.9.
In the same order, the values of `CCCCCCOc1ccc(-n2cnnc2CCCC)cc1` are 110 mg/kg, 13.6 mg/kg and 8.1.
For `CCCCCCOc1ccc(-n2cnnc2-c2cccc(F)c2)cc1`, in that order: 104 mg/kg, 27.4 mg/kg and 3.8.
With `CCCCCCOc1ccc(-n2cnnc2-c2ccc(OC)cc2)cc1`, the TD50 at 0.5 h in series [1] was determined as 120 mg/kg. Also, the ED50 in the series on Mus musculus [2] worked out at 15.8 mg/kg. Further, the selectivity ratio in series [3] was found to be 7.6.
In the same order, the values of `CCCCCCOc1ccc(-n2cnnc2-c2ccccc2Cl)cc1` are 91.2 mg/kg, 13.2 mg/kg and 6.9.
In the same order, the values of `CCCCCCOc1ccc(-n2cnnc2CCCCC)cc1` are 189 mg/kg, 32.8 mg/kg and 5.8.
For `CCCCCCCc1nncn1-c1ccc(OCCCCCC)cc1`, the ED50 in the series with Mus musculus [2] is more than 40 mg/kg.
As for `CCCCCCOc1ccc(-n2cnnc2Cc2ccccc2)cc1`, the TD50 at 0.5 h in series [1] is 131 mg/kg. Besides, in the series with Mus musculus [2], the ED50 was 19 mg/kg. The selectivity ratio in series [3] amounted to 6.9.
The compound `c1ccc(COc2ccc3c(c2)CCc2nncn2-3)cc1` had an ED50 in the series with Mus musculus [4] of 24 mg/kg.
As for `CCCCCCOc1ccc(-n2cnnc2-c2ccc(F)cc2)cc1`, the TD50 at 0.5 h in series [1] was 91.3 mg/kg. In addition, in the series with Mus musculus [2], the ED50 stood at 22 mg/kg. Also, in series [3], the selectivity ratio was found to be 4.2.
The compound `O=C1CCc2cc(OCc3ccccc3)ccc2N1` returned a TD50 in series [5] of more than 300 mg/kg.
For the compound `CCCCCCOc1ccc(-n2cnnc2-c2ccccc2)cc1`, in series [1], the TD50 at 0.5 h came to 137 mg/kg. For the same compound, the ED50 in the series with Mus musculus [2] is 19 mg/kg. The selectivity ratio in series [3] was 7.2.
In the same order, the values of `CCCCCCOc1ccc(-n2cnnc2)cc1` are 112 mg/kg, 9.8 mg/kg and 11.4.
In the same order, the values of `CCCCCCOc1ccc(-n2cnnc2-c2ccccc2F)cc1` are 101 mg/kg, 20.2 mg/kg and 5.
In the case of `CCCCCCOc1ccc(-n2cnnc2CCc2ccccc2)cc1`, in series [1], the TD50 at 0.5 h was 158 mg/kg. Further, the ED50 in the series on Mus musculus [2] amounted to 27.4 mg/kg. Also, the selectivity ratio in series [3] came to 5.7.
In the same order, the values of `CCCCCCOc1ccc(-n2cnnc2-c2ccc(C)cc2)cc1` are 101 mg/kg, 11.4 mg/kg and 8.8.
On to `CCCCCCOc1ccc2c(c1)CCc1nncn1-2`, for which, in series [3], the selectivity ratio was 2.2.
On the same count and under the same terms, with `CCCCCCOc1ccc(-n2cnnc2CC)cc1` the figure was 4.7.
Regarding `CCCCCCOc1ccc(-n2cnnc2CCC)cc1`, the TD50 at 0.5 h in series [1] is 65.7 mg/kg. The ED50 in the series on Mus musculus [2] amounted to 5.7 mg/kg. The selectivity ratio in series [3] was determined as 11.5.
Turning to `CCCCCCOc1ccc(-n2cnnc2CCCCCC)cc1`, the ED50 with Mus musculus [2] is more than 40 mg/kg.
Turning to `CCCCCCOc1ccc(-n2cnnc2-c2ccc(Cl)cc2)cc1`, the TD50 at 0.5 h in series [1] stood at 137 mg/kg. In the series on Mus musculus [2], the ED50 stood at 19.7 mg/kg. In addition, the selectivity ratio in series [3] stood at 6.9.
`CCCCCCCCCc1nncn1-c1ccc(OCCCCCC)cc1`: the 50% effective dose (ED50) in the series with Mus musculus [2] was more than 40 mg/kg.
